The source made the active and inactive calls. How the calls were made is not given here.
Tested on: HCT116 viability, CellTiter-Glo, GSK3B-pretreated
Test: HCT116 cell viability decrease, GSK3B pretreatment – CellTiter-Glo, IC50, dose response (AID 1117339)

| Compound | IC50 |
| --- | --- |
| Cc1ccc([N+](=O)[O-])[c]2c1[O][Hg]2 | 2220 nM (inactive) |
| CCCCCCCCCCCCCC[N+](C)(C)C | 754 nM |
| OCCN1CCN(CC/C=C2/c3ccccc3Sc3ccc(C(F)(F)F)cc32)CC1 | 2890 nM |

From PubChem BioAssay AID1117339
